{"source": "patent US9750755B2", "about": "“Antimicrobial compositions and related methods” (DeLaval Holding AB, priority 2006, dated 2017)", "key": {"E. coli (ATCC 11229)": {"tested_on": "E. coli (ATCC 11229)", "experiment": "Modified EN 1656 dilution neutralization test, milk as interferent, 30 seconds contact", "assay_type": "cell-based, Escherichia coli", "details": "10% lactic acid used alone, typical", "method": "(§1) The test bacteria were Eschericia coli (ATCC 11229), which were originally isolated from mastitis infection and obtained on commercial order from Mastitlaboratoriet, SVA, and Staphococcus aureus (ATCC6538 from Microbiologics, St. Cloud, Minn.), which was also isolated from mastitis infection.\n(§2) According to a modified EN1656 dilution neutralization method, freeze dried E. coli (ATCC 11229) and S. aureus (ATCC 6538) were hydrated, grown for four days and transferred. Then bacteria were diluted to form a suspension to have an initial concentration of about 10^8 cfu/mL.\n(§3) Freeze-dried pellets of E. coli (ATCC 11229) and S. aureus (ATCC 6538) were hydrated, placed in test tubes containing nutrient agar and incubated at 37° C. for 24 hours. Sterile buffer (0.25 M phosphate adjusted to pH 7.2) was used to dilute and transfer the bacteria to additional nutrient agar tubes, which were incubated for another 24 hours. S. aureus was then diluted with buffer and transferred to nutrient agar in French bottles, and E. coli was diluted and transferred to fresh nutrient agar tubes. Both types of bacteria were incubated at 37° C. for 72 hours. E. coli was then diluted and transferred to nutrient agar in French bottles. […]\n(§4) The plates with bacterial populations between 25 and 250 were counted and results were expressed as logarithmic reductions according to EN 1656 test method."}, "S. aureus (ATCC 6538)": {"tested_on": "S. aureus (ATCC 6538)", "experiment": "Modified EN 1656 dilution neutralization test, milk as interferent, 30 seconds contact", "assay_type": "cell-based, Staphylococcus aureus", "details": "10% lactic acid used alone, typical", "method": "as §1, §2, §3, §4"}}, "data": [{"smiles": "CC(O)C(=O)O", "note": "(stereo not drawn) [lactic acid, L(+)-2-Hydroxypropanoic acid]", "values": [{"measurement": "log reduction in E. coli concentration", "setting": "E. coli (ATCC 11229)", "value": "five log reduction"}, {"measurement": "log reduction in S. aureus concentration", "setting": "S. aureus (ATCC 6538)", "value": "less than a three log reduction"}]}]}
